Entries after “also recorded” stand apart in the source; their conditions may differ.
Legend:
sympathetic nerve = assay: Sympathetic nerve ablation by intradermal injection of 6-OHDA; type: in vivo, mice
Description: The sympathetic nervous system is constantly active at a basal level to maintain body physiology. To explore if basal sympathetic nerve activity affects the other two cell types in this nerve-APM-HFSC tri-lineage unit, the sympathetic nerve in telogen skin was ablated through intradermal injection of 6-hydroxydopamine (6-OHDA, a selective neurotoxin for sympathetic nerves) (Kostrzewa and Jacobowitz, 1974), when HFSCs are quiescent. […] By P30, hair follicles reached full anagen throughout the control back skin, whereas hair follicles in the sympathectomized skin remained mostly in telogen (FIG. 1C). […]
Chemical ablation: 6-Hydroxydopamine hydrobromide (6-OHDA, Sigma 162957) solution was prepared freshly by dissolving 6-OHDA in 0.1% ascorbic acid (in 0.9% sterile NaCl) for intradermal injection. […] Skin was analyzed one week after ablation.
(§1) H&E stained sections were used for analysis. For quantification, anagen II and anagen III were considered as early anagen, anagen IV was mid anagen, and anagen V and anagen VI were full anagen. Hair cycle stages were determined using previously described criteria (Muller-Rover et al., 2001). Ten to twenty hair follicles were individually assessed and staged in each animal, and at least 4 different animals were used per condition. […] The percent of dorsal skin in anagen was quantified using Fiji. […]

HFSCs = assay: Adrenergic agonist topical application, anagen entry; type: in vivo, mice; conditions: 10 mg/kg body weight once a day for 10 days, extended 2nd telogen
Description: Next, the impact of elevated sympathetic tone on HFSC activation was explored. Sympathetic nerve terminals secrete the neurotransmitter norepinephrine, which binds to adrenergic receptors on target cells. To elevate the sympathetic tone, isoproterenol, a pan-adrenergic receptor agonist, was topically applied at the extended 2nd telogen. […] Loss of sympathetic nerve innervations makes HFSCs more dormant, whereas elevated sympathetic tone promotes HFSC activation.
as §1, with “The effects of cold exposure and adrenergic agonist treatment (isoproterenol and procaterol) on anagen entry were quantified by monitoring the change of hair regrowth as previously described (Fan et al., 2018; Sheen et al., 2015). The” for “The”

human HFSCs = assay: Colony formation assay (CFA); type: cell-based; conditions: 0.1 μM procaterol
Method: Human hair follicles were isolated from normal scalp tissues. To isolate hair follicle stem cells (HFSCs), hair follicles were dissected, and subcutaneous fat and connective tissues were carefully removed with a scalpel. The lower hair bulb and upper epithelial layer were removed as previously described (Oshima et al., 2001; Rochat et al., 1994). For HFSC isolation, hair follicles were incubated in 1.25 U/mL dispase (Gibco) and 0.5 mg/mL collagenase I (Sigma-Aldrich) solution at 37° C. for 30 minutes, following which the mesenchymal sheath was carefully removed with forceps. To obtain a single cell HFSC suspension, tissue was digested with 0.05% trypsin/EDTA solution (Gibco) for 1 h at 37° C., and cells were filtered through a sterile 40[…] cell strainer (BD Biosciences). Single cell suspensions were then centrifuged at 1300 rpm for 10 minutes and plated on mitomycin C (Cayman) treated J2 feeders at a cell density of 5000 cells/well in a 12-well culture plate (Falcon) in E media supplemented with EGF and additives as described in (Mou et al., 2016; Nowak and Fuchs, 2009). After 48 hours, 0.1 μM procaterol (Sigma) was added (freshly prepared). Medium was changed every 2 days. On day 10, plates were fixed with 4% PFA and stained with Rhodamine B (Sigma). […] CFA quantification was done using Fiji.

Row | Compound | ablation of the sympathetic nerve in skin (sympathetic nerve; intradermal injection, telogen skin) | HFSC activation and anagen entry (sympathetic nerve; sympathectomy by intradermal 6-OHDA) | anagen entry (back skin hair regrowth) (HFSCs) | growth of cultured human HFSCs (area covered by colonies) (human HFSCs)
1 | NCCc1cc(O)c(O)cc1O [6-OHDA, 6-hydroxydopamine] | ablated the sympathetic nerve efficiently | substantial delay in HFSC activation and anagen entry | – | –
2 | CC(C)NCC(O)c1ccc(O)c(O)c1 (centres unmarked) [isoproterenol] | – | – | entered anagen earlier; also recorded: precocious anagen entry | –
3 | CCC(NC(C)C)C(O)c1ccc(O)c2[nH]c(=O)ccc12 (centres unmarked) [procaterol] | – | – | accelerated anagen entry; also recorded: premature anagen entry | promoted their growth

Reference: US20230321278A1, “AAV VECTOR DELIVERY SYSTEMS” (President and Fellows of Harvard College, priority 2020, published 2023)
